The source of these data is patent US10344025B2, “GLS1 inhibitors for treating disease” (Board of Regents, The University of Texas System, priority 2014, dated 2019).

Some results are limits rather than exact numbers.

Test [1] concerns the target purified recombinant human GAC (GLS1) (Homo sapiens (Human), UniProt O94925). Briefly: GLS1 Enzymatic Activity Assay (dual-coupled enzymatic assay, resorufin/Amplex UltraRed readout).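 Further: glutamate from GAC coupled via glutamate oxidase and peroxidase to resorufin, read as fluorescence (ex 530, em 590 nm) kinetically or at 20 min, four-parameter logistic IC50 fit.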 Format: biochemical.
Another test deals with A549 cells. Nature of the test: Proliferation Assay (A549 viability, Cell Titer Fluor, 72 hours). Format: cell-based. As to conditions: Homo sapiens, A549, 72 h. An outline of the steps:
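A549 cells seeded at 1000 cells/well, rested 24 h, then exposed to compound in 0.5% DMSO for 72 h at 37 °C. Viability read by Cell Titer Fluor fluorescence; IC50 from four-parameter logistic fit.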

Chain of purified recombinant human GAC (GLS1) (O94925 other isoform, or with tags, fused parts or gaps): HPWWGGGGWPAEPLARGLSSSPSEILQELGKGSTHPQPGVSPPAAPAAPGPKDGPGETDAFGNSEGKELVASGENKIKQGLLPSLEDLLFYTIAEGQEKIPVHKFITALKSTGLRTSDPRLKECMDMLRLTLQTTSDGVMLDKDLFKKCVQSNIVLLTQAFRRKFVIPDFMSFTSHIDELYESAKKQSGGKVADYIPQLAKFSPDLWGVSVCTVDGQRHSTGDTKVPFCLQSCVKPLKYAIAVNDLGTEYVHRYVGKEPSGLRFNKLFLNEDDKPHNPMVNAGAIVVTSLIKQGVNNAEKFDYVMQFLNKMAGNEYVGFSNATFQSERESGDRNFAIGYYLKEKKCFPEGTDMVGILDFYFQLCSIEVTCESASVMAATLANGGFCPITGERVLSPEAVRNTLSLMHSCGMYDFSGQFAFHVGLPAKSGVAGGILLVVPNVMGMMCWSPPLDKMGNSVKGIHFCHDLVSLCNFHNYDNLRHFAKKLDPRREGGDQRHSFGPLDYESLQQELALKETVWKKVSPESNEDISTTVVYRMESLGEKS

Consider `CNC(=O)c1nnc(CCC(F)Cn2cc(C(=O)NCc3cc(OC(F)(F)F)ccc3F)nn2)s1` (stereo not shown) [Example 555, 5-{3-fluoro-4-[4-({[2-fluoro-5-(trifluoromethoxy)phenyl]methyl}carbamoyl)-1H-1,2,3-triazol-1-yl]butyl}-N-methyl-1,3,4-thiadiazole-2-carboxamide], for which the IC50 in test [1] is less than 0.1 µM. In addition, the EC50 with A549 cells lay within 0.1 to 0.5 µM.
For `CNC(=O)c1nnc(CCC(F)Cn2cc(C(=O)NCc3ccccc3)nn2)s1` (stereo not shown) [Example 556, 5-{4-[4-(benzylcarbamoyl)-1H-1,2,3-triazol-1-yl]-3-fluorobutyl}-N-methyl-1,3,4-thiadiazole-2-carboxamide] the same measures were 0.1 to 0.5 µM and 0.5 to 5 µM.
For `CNC(=O)c1nnc(CCC(F)Cn2cc(C(=O)NCc3ccccn3)nn2)s1` (stereo not shown) [Example 557, 5-(3-fluoro-4-{4-[(pyridin-2-ylmethyl)carbamoyl]-1H-1,2,3-triazol-1-yl}butyl)-N-methyl-1,3,4-thiadiazole-2-carboxamide], in that order: 0.5 to 5 µM and 0.5 to 5 µM.
Regarding `O=C(Cc1cccc(OC(F)(F)F)c1)Nc1nnc(CCC(F)Cn2cc(C(=O)NCC3COC3)nn2)s1` (stereo not shown) [Example 558, 1-[2-fluoro-4-(5-{2-[3-(trifluoromethoxy)phenyl]acetamido}-1,3,4-thiadiazol-2-yl)butyl]-N-(oxetan-3-ylmethyl)-1H-1,2,3-triazole-4-carboxamide], the 50% inhibitory concentration (IC50) in test [1] was less than 0.1 µM. This compound came in with an EC50 in the test on A549 cells of 0.5 to 5 µM.
For `Cc1ccc(CNC(=O)c2cn(CC(F)CCc3nnc(NC(=O)Cc4cccc(OC(F)(F)F)c4)s3)nn2)cn1` (stereo not shown) [Example 559, 1-[2-fluoro-4-(5-{2-[3-(trifluoromethoxy)phenyl]acetamido}-1,3,4-thiadiazol-2-yl)butyl]-N-[(6-methylpyridin-3-yl)methyl]-1H-1,2,3-triazole-4-carboxamide], in that order: less than 0.1 µM and 0.1 to 0.5 µM.
For `CC(C)(CO)CNC(=O)c1cn(CCCCc2ccc(NC(=O)Cc3cccc(OC(F)(F)F)c3)nn2)nn1` [Example 560, N-(3-hydroxy-2,2-dimethylpropyl)-1-[4-(6-{2-[3-(trifluoromethoxy)phenyl]acetamido}pyridazin-3-yl)butyl]-1H-1,2,3-triazole-4-carboxamide] the same measures were less than 0.1 µM and 0.1 to 0.5 µM.
For the compound `CNC(=O)c1cn(CC(F)CCc2nnc(C(=O)NCc3cccc(OC(F)(F)F)c3)s2)nn1` (stereo not shown) [Example 561, 5-{3-fluoro-4-[4-(methylcarbamoyl)-1H-1,2,3-triazol-1-yl]butyl}-N-{[3-(trifluoromethoxy)phenyl]methyl}-1,3,4-thiadiazole-2-carboxamide], the IC50 in test [1] was less than 0.1 µM. The compound also returned a concentration for a half-maximal effect (EC50) in the test on A549 cells of 0.1 to 0.5 µM.
For `CNC(=O)c1cn(CC(F)CCc2nnc(C(=O)NCc3cc(OC(F)(F)F)ccc3F)s2)nn1` (stereo not shown) [Example 562, 5-{3-fluoro-4-[4-(methylcarbamoyl)-1H-1,2,3-triazol-1-yl]butyl}-N-{[2-fluoro-5-(trifluoromethoxy)phenyl]methyl}-1,3,4-thiadiazole-2-carboxamide], in that order: less than 0.1 µM and 0.1 to 0.5 µM.
For `CNC(=O)c1cn(CC(F)CCc2nnc(C(=O)NCc3ccccc3)s2)nn1` (stereo not shown) [Example 563, N-benzyl-5-{3-fluoro-4-[4-(methylcarbamoyl)-1H-1,2,3-triazol-1-yl]butyl}-1,3,4-thiadiazole-2-carboxamide], in that order: 0.5 to 5 µM and 0.5 to 5 µM.
For `CNC(=O)c1cn(CC(F)CCc2nnc(NC(=O)Cc3ncc(Cl)cc3F)s2)nn1` (stereo not shown) [Example 564, 1-(4-{5-[2-(5-chloro-3-fluoropyridin-2-yl)acetamido]-1,3,4-thiadiazol-2-yl}-2-fluorobutyl)-N-methyl-1H-1,2,3-triazole-4-carboxamide] the same measures were less than 0.1 µM and 0.5 to 5 µM.
As to `CNC(=O)c1cn(CCCCc2ccc(NC(=O)Cc3cccc(N4CCCC4)c3)nn2)nn1` [Example 565, N-methyl-1-(4-(6-(2-(3-(pyrrolidin-1-yl)phenyl)acetamido)pyridazin-3-yl)butyl)-1H-1,2,3-triazole-4-carboxamide], the 50% inhibitory concentration (IC50) in test [1] was less than 0.1 µM. For the same compound, in the test on A549 cells, the EC50 is 0.1 to 0.5 µM.
Turning to `CC(=O)Nc1nnc(CCC(F)Cn2cc(C(=O)NCc3cccc(OC(F)(F)F)c3)nn2)s1` (stereo not shown) [Example 566, 1-(4-(5-acetamido-1,3,4-thiadiazo1-2-yl)-2-fluorobutyl)-N-(3-(trifluoromethoxy)benzyl)-1H-1,2,3-triazole-4-carboxamide], the IC50 in test [1] is less than 0.1 µM. This compound also displayed an EC50 with A549 cells of 0.1 to 0.5 µM.
Regarding `CC(=O)Nc1nnc(CCC(F)Cn2cc(C(=O)NCc3cc(C(F)(F)F)ccn3)nn2)s1` (stereo not shown) [Example 567, 1-(4-(5-acetamido-1,3,4-thiadiazol-2-yl)-2-fluorobutyl)-N-((4-(trifluoromethyl)pyridin-2-yl)methyl)-1H-1,2,3-triazole-4-carboxamide], in test [1], the IC50 is less than 0.1 µM. This compound also came in with an EC50 with A549 cells of 0.1 to 0.5 µM.
For `O=C(NCc1cccc(OC(F)(F)F)c1)c1cn(CC(F)CCc2nnc(NC(=O)C3CC3)s2)nn1` (stereo not shown) [Example 568, 1-(4-(5-(cyclopropanecarboxamido)-1,3,4-thiadiazol-2-yl)-2-fluorobutyl)-N-(3-(trifluoromethoxy)benzyl)-1H-1,2,3-triazole-4-carboxamide] the same measures were less than 0.1 µM and 0.1 to 0.5 µM.
Consider `CNC(=O)c1cn(CC(F)CCc2nnc(C(=O)NCc3ccccn3)s2)nn1` (stereo not shown) [Example 570, 5-(3-fluoro-4-(4-(methylcarbamoyl)-1H-1,2,3-triazol-1-yl)butyl)-N-(pyridin-2-ylmethyl)-1,3,4-thiadiazole-2-carboxamide], for which the IC50 in test [1] lay in the range of 0.1 to 0.5 µM. The same compound showed an EC50 in the test with A549 cells of 0.5 to 5 µM.
For `O=C(Cc1ccccn1)Nc1nnc(CCC(F)Cn2cc(C(=O)NCc3cncc(C(F)(F)F)c3)nn2)s1` (stereo not shown) [Example 571, 1-(2-fluoro-4-(5-(2-(pyridin-2-yl)acetamido)-1,3,4-thiadiazol-2-yl)butyl)-N-((5-(trifluoromethyl)pyridin-3-yl)methyl)-1H-1,2,3-triazole-4-carboxamide], in that order: less than 0.1 µM and less than 0.1 µM.
For `CNC(=O)c1nnc(CCCCc2ccc(NC(=O)Cc3cccc(OC(F)(F)F)c3)nn2)s1` [Example 572, N-methyl-5-(4-(6-(2-(3-(trifluoromethoxy)phenyl)acetamido)pyridazin-3-yl)butyl)-1,3,4-thiadiazole-2-carboxamide], in that order: less than 0.1 µM and 0.1 to 0.5 µM.
In the case of `O=C(Cc1nccs1)Nc1nnc(CCC(F)Cn2cc(C(=O)NCc3cc(OC(F)(F)F)ccc3F)nn2)s1` (stereo not shown) [Example 573, 1-(2-fluoro-4-(5-(2-(thiazol-2-yl)acetamido)-1,3,4-thiadiazol-2-yl)butyl)-N-(2-fluoro-5-(trifluoromethoxy)benzyl)-1H-1,2,3-triazole-4-carboxamide], the IC50 in test [1] is less than 0.1 µM. For the same compound, the EC50 in the test with A549 cells is less than 0.1 µM.
Turning to `O=C(NCc1cc(OC(F)(F)F)ccc1F)c1cn(CC(F)CCc2nnc(NC(=O)C3CCCCO3)s2)nn1` (stereo not shown) [Example 574, 1-(2-fluoro-4-(5-(tetrahydro-2H-pyran-2-carboxamido)-1,3,4-thiadiazol-2-yl)butyl)-N-(2-fluoro-5-(trifluoromethoxy)benzyl)-1H-1,2,3-triazole-4-carboxamide], the IC50 in test [1] is less than 0.1 µM. Further, in the test with A549 cells, the EC50 was less than 0.1 µM.
Turning to `O=C(Cc1ccn[nH]1)Nc1nnc(CCC(F)Cn2cc(C(=O)NCc3cc(OC(F)(F)F)ccc3F)nn2)s1` (stereo not shown) [Example 575, 1-(4-(5-(2-(1H-pyrazol-5-yl)acetamido)-1,3,4-thiadiazol-2-yl)-2-fluorobutyl)-N-(2-fluoro-5-(trifluoromethoxy)benzyl)-1H-1,2,3-triazole-4-carboxamide], the IC50 in test [1] was less than 0.1 µM. The compound also displayed an EC50 with A549 cells of 0.1 to 0.5 µM.
As for `Cn1cnc(CC(=O)Nc2nnc(CCC(F)Cn3cc(C(=O)NCc4cc(OC(F)(F)F)ccc4F)nn3)s2)c1` (stereo not shown) [Example 576, 1-(2-fluoro-4-(5-(2-(1-methyl-1H-imidazol-4-yl)acetamido)-1,3,4-thiadiazol-2-yl)butyl)-N-(2-fluoro-5-(trifluoromethoxy)benzyl)-1H-1,2,3-triazole-4-carboxamide], the concentration for half-maximal inhibition (IC50) in test [1] was less than 0.1 µM. The compound also gave a half-maximal effective concentration (EC50) with A549 cells of less than 0.1 µM.
As to `O=C(Nc1nnc(CCC(F)Cn2cc(C(=O)NCc3cc(OC(F)(F)F)ccc3F)nn2)s1)c1cccnc1` (stereo not shown) [Example 577, N-(5-(3-fluoro-4-(4-((2-fluoro-5-(trifluoromethoxy)benzyl)carbamoyl)-1H-1,2,3-triazol-1-yl)butyl)-1,3,4-thiadiazol-2-yl)nicotinamide], the IC50 in test [1] was less than 0.1 µM. This compound also returned an EC50 with A549 cells of 0.5 to 5 µM.
Take `CNC(=O)c1cn(CC(F)CCc2nnc(NC(=O)Cc3cccnc3)s2)nn1` (stereo not shown) [Example 578, 1-(2-fluoro-4-(5-(2-(pyridin-3-yl)acetamido)-1,3,4-thiadiazol-2-yl)butyl)-N-methyl-1H-1,2,3-triazole-4-carboxamide]: in test [1], the IC50 was less than 0.1 µM. The compound also displayed a concentration giving a half-maximal response (EC50) in the test with A549 cells of 0.5 to 5 µM.
Take `CNC(=O)c1cn(CCCCc2ccc(NC(=O)Cc3cnccn3)nn2)nn1` [Example 579, N-methyl-1-(4-(6-(2-(pyrazin-2-yl)acetamido)pyridazin-3-yl)butyl)-1H-1,2,3-triazole-4-carboxamide]: the IC50 in test [1] lay within 0.1 to 0.5 µM. For the same compound, the EC50 with A549 cells was in the range of 0.5 to 5 µM.
For `O=C(Cc1cc(C2CC2)ccn1)Nc1nnc(CCC(F)Cn2cc(C(=O)NCc3cncc(C(F)(F)F)c3)nn2)s1` (stereo not shown) [Example 580, 1-(4-(5-(2-(4-cyclopropylpyridin-2-yl)acetamido)-1,3,4-thiadiazol-2-yl)-2-fluorobutyl)-N-((5-(trifluoromethyl)pyridin-3-yl)methyl)-1H-1,2,3-triazole-4-carboxamide] the same measures were less than 0.1 µM and less than 0.1 µM.
Turning to `O=C(Cc1cc(OC(F)(F)F)ccc1F)Nc1ccc(CCCCn2cc(C(=O)NC3COC3)nn2)nn1` [Example 581, 1-(4-(6-(2-(2-fluoro-5-(trifluoromethoxy)phenyl)acetamido)pyridazin-3-yl)butyl)-N-(oxetan-3-yl)-1H-1,2,3-triazole-4-carboxamide], the IC50 in test [1] is less than 0.1 µM. Also, the EC50 with A549 cells fell in the range of 0.1 to 0.5 µM.
